{"source": "paper PMC4503439", "about": "“Dose-Independent ADME Properties and Tentative Identification of Metabolites of α-Mangostin from Garcinia mangostana in Mice by Automated Microsampling and UPLC-MS/MS Methods” (PLoS ONE, 2015)", "key": {"[1]": {"test": "Tentative identification of metabolites from α-MG by UPLC-MS/MS", "type": "in vivo", "conditions": "mice after intravenous and oral α-MG; S9 fractions after 30-min incubation", "from_the_text": "Probable metabolites of α-MG were identified using the simultaneous full scan MS, MRM and MS/MS modes in a Waters UPLC-XEVO TQ system (Waters Corporation, Milford, USA) to confirm the structures of any metabolites. […] Structural elucidation of the metabolites was based on the fragmentation patterns of parent ion from the MS/MS mode at a collision energy of 10 to 20 eV generating daughter ions. The mass transitions for α-MG was m/z 411.21 → 354.85 (collision energy of 20 eV and collision cell exit potential of 25 eV, respectively). The unknown masses were further analyzed in MS/MS (daughter scan) mode with the electrospray ionization interface used to generate positive and negative ions at a capillary voltage of 3.0 kV, source temperature of 350°C and desolvation gas temperature of 650°C. The MRM methods for identification of possible metabolites generated by phase I and/or II reactions were included.\nThese compounds were separated on a reversed-phase C18 column (XSELECT CSH, 2.1 mm × 100 mm i.d., 1.7-μm particle size; Waters, Ireland) with a flow rate of 0.35 mL/min. The mobile phase composition was started at 95: 5 (v/v) of distilled water containing 0.1% formic acid (A) and acetonitrile (B) and gradually changed to 35: 65 (v/v) for 30 min, and then switched back to 95: 5 (v/v) for 40 min."}, "[2]": {"biological_target": "T1, P-glycoprotein (Homo sapiens, UniProt P08183)", "T1 construct": "expressed in transfected cells; host or cells: MDCK-mdr1 (canine kidney cells carrying an mdr1 transgene; transfection is inferred from the cell line name)", "T1 sequence (P08183 whole entry)": "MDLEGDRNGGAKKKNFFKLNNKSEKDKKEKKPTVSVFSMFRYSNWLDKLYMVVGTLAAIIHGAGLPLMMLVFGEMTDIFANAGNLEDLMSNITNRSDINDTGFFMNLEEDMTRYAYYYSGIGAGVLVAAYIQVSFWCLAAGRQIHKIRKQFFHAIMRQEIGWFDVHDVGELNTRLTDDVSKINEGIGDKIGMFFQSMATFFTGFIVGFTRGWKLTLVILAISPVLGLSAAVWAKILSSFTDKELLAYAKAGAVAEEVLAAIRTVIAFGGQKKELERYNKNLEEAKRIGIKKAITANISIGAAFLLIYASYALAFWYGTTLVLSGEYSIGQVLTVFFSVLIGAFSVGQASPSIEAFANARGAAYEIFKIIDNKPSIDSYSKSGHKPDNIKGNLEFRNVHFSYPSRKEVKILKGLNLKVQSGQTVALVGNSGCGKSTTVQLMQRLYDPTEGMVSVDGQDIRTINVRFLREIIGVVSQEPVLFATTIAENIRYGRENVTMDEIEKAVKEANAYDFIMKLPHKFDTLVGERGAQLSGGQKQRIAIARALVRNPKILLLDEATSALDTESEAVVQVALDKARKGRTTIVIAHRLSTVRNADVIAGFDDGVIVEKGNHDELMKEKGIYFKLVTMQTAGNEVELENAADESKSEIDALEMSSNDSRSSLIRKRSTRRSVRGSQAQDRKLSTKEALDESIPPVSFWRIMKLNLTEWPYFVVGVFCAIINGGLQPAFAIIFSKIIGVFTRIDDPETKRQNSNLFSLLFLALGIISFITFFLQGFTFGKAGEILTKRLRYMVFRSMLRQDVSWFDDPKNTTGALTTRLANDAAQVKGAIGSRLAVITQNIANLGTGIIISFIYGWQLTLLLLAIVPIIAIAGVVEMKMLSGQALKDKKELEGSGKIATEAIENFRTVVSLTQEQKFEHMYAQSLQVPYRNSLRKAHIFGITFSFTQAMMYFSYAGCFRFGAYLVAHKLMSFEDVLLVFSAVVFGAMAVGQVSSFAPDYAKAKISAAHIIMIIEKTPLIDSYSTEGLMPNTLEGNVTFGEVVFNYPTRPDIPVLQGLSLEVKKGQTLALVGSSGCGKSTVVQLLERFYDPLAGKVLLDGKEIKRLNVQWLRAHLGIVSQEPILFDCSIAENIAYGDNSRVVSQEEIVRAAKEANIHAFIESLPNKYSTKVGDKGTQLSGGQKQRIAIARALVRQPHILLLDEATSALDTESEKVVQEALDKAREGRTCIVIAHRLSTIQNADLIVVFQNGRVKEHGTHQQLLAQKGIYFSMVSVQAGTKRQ", "test": "P-glycoprotein substrate test in MDCK-mdr1 cell line", "type": "in vitro ADME", "conditions": "our unpublished data"}, "[3]": {"test": "Metabolism of α-MG in in vitro S9 fraction of small intestine", "type": "in vitro ADME, mice", "conditions": "30 min incubation, NADPH and UDPGA", "from_the_text": "The procedures for using S9 fractions from various tissues were similar those already reported. Each liver, stomach, small intestine, large intestine, lung, heart, kidney, fat, mesentery, muscle, and brain was excised after cervical dislocation (n = 6). Each tissue sample was rinsed with cold 0.9% NaCl-injectable solution, blotted dry with tissue paper and weighed. Then each tissue was homogenized with a volume of 0.25 M sucrose at 4 times of each tissue. Metabolic activity was initiated by adding a 100 μL aliquot of the 9000 × g supernatant fraction (S9) of each tissue to a 135 μL of Tris-buffer (pH 7.4), 5 μL of 0.9% NaCl-injectable solution with 1 or 20 μg/mL α-MG as a final concentration, 5 μL (1 mM) of NADPH and 5 μL (3.3 mM) of UDPGA. A 250 μL aliquot of acetonitrile (containing 1 μg/mL of the IS) was added after a 30 min incubation in a thermomixer (37°C and 500 opm) to terminate the enzyme activity. The amount of remaining α-MG in the S9 fraction of each tissue was determined using the HPLC-MS/MS analytical method."}, "[4]": {"test": "Pharmacokinetics of α-MG after oral administration to mice (automated microsampling)", "type": "in vivo", "conditions": "for CL renal / Cmax / AUC / Tmax / half-life / Ae 0–24 h / GI 24 h: oral; for Tmax: median (ranges); for half-life: read-out: Terminal half-life", "method": "The surgical procedures were conducted under intramuscular injection anesthesia with 125 mg (1.5 mL)/kg of tiletamine HCl and zolazepam HCl mixture. The carotid artery (for intravenous and oral studies) and the jugular vein (for intravenous study) were cannulated using CX-2052S and CX-2022S catheters (BASi, West Lafayette, IN), respectively. After the mice awoke from anesthesia, the administration of α-MG and blood sampling were performed, [12], [31].\nα-MG (the same solution as used in the intravenous study) at doses of 10, 50 and 100 mg (10 mL)/kg was administered orally using a gastric gavage tube after overnight fasting with free access to water. A blood sample using the microsampling system was collected via the carotid artery at 0, 5, 15, 30, 60, 90, 120, 180, 240, 300 and 360 min after the oral administration of α-MG. Other procedures were similar to those in the intravenous study.\nThe analytical method for measuring α-MG was modified from a previous report. In sample preparation, 100 μL of acetonitrile containing 1 μg/mL IS was added to 50 μL of aliquot of the sample. After vortex-mixing and centrifugation (15000 × g for 10 min), 10 μL of the supernatant was directly injected into a reversed-phase C18 column (Cadenza CD-C18, 2 mm × 75 mm i.d., 3-μm particle size; Imtakt, USA) kept at 4°C until injection. The analytes were monitored using a API4000 triple quadrupole mass spectrometer (AB Sciex, Foster City, CA) equipped with a turbo ion-spray interface for electrospray ionization and operated in positive ion mode at 5500 V and 500°C at 50 L/min of nebulizing gas flow, 50 L/min of turbo ion-spray gas flow, 20 L/min of curtain gas flow, 5500 V of ring voltage and 5 Torr of collision gas (nitrogen) pressure.\nStandard methods were used to calculate the following pharmacokinetic parameters using a non-compartmental analysis (WinNonlin 2.1; Pharmasight Corp., Mountain View, CA). The extent of absolute oral bioavailability (F) was calculated by dividing the AUCoral/AUCiv at the same dose. The peak plasma concentration (C max) and time to reach C max (T max) were read directly from the […] data."}, "[5]": {"test": "Stability of α-MG in various buffer solutions", "type": "physicochemical", "conditions": "pHs ranging from 2 to 13; unpublished data"}}, "note": "Read-outs that look alike come from different tables or passages of the source.", "data": [{"molecule": "COc1c(O)cc2oc3cc(O)c(CC=C(C)C)c(O)c3c(=O)c2c1CC=C(C)C", "note": "[α-MG, α-Mangostin]", "values": [{"measurement": "Source (samples in which detected)", "setting": "[1]", "value": "plasma, urine, feces, liver, small intestine, S9 fractions of liver and small intestine"}, {"measurement": "substrate of P-glycoprotein", "setting": "[2]", "value": "substrate of P-glycoprotein"}, {"measurement": "disappearance of spiked α-MG", "setting": "[3]; small intestine S9, 1 μg/mL", "value": 34.8, "unit": "%"}, {"measurement": "disappearance of spiked α-MG", "setting": "[3]; small intestine S9, 20 μg/mL", "value": 36.2, "unit": "%"}, {"measurement": "first blood sampling time point at which detected in plasma", "setting": "[4]; after oral administration", "value": 5, "unit": "min"}, {"measurement": "F unabs ('true' fraction of the oral dose unabsorbed)", "setting": "[4]; calculated by reported equation assuming linear pharmacokinetics", "value": 0.434}, {"measurement": "bioavailability", "setting": "[4]; mouse, plasma, oral 10 mg/kg, AUCoral/AUCiv at the same dose, read-out: F (absolute oral bioavailability)", "value": 2.29, "unit": "%"}, {"measurement": "CL renal", "setting": "[4]; mouse, plasma, 10 mg/kg", "value": "0.535 ± 0.309", "unit": "mL/min/kg"}, {"measurement": "Cmax", "setting": "[4]; mouse, plasma, 10 mg/kg", "value": "40.3 ± 30.7", "unit": "ng/mL"}, {"measurement": "AUC", "setting": "[4]; mouse, plasma, 10 mg/kg (n = 8)", "value": 130, "unit": "ng·h/mL"}, {"measurement": "Tmax", "setting": "[4]; mouse, plasma, 10 mg/kg", "value": 1, "unit": "h"}, {"measurement": "half-life", "setting": "[4]; mouse, plasma, 10 mg/kg", "value": "2.95 ± 1.18", "unit": "h"}, {"measurement": "CL renal", "setting": "[4]; mouse, plasma, 50 mg/kg", "value": "0.547 ± 0.309", "unit": "mL/min/kg"}, {"measurement": "Cmax", "setting": "[4]; mouse, plasma, 50 mg/kg", "value": "242 ± 35", "unit": "ng/mL"}, {"measurement": "AUC", "setting": "[4]; mouse, plasma, 50 mg/kg (n = 7)", "value": 622, "unit": "ng·h/mL"}, {"measurement": "Tmax", "setting": "[4]; mouse, plasma, 50 mg/kg", "value": 0.5, "unit": "h"}, {"measurement": "half-life", "setting": "[4]; mouse, plasma, 50 mg/kg", "value": "3.28 ± 1.35", "unit": "h"}, {"measurement": "CL renal", "setting": "[4]; mouse, plasma, 100 mg/kg", "value": "0.418 ± 0.229", "unit": "mL/min/kg"}, {"measurement": "Cmax", "setting": "[4]; mouse, plasma, 100 mg/kg", "value": "709 ± 397", "unit": "ng/mL"}, {"measurement": "AUC", "setting": "[4]; mouse, plasma, 100 mg/kg (n = 9)", "value": 1390, "unit": "ng·h/mL"}, {"measurement": "Tmax", "setting": "[4]; mouse, plasma, 100 mg/kg", "value": 1, "unit": "h"}, {"measurement": "half-life", "setting": "[4]; mouse, plasma, 100 mg/kg", "value": "2.52 ± 0.822", "unit": "h"}, {"measurement": "Ae 0–24 h", "setting": "[4]; 10 mg/kg", "value": "0.0255 ± 0.0107 % of dose"}, {"measurement": "GI 24 h", "setting": "[4]; 10 mg/kg", "value": "43.5 ± 10.6 % of dose"}, {"measurement": "Ae 0–24 h", "setting": "[4]; 50 mg/kg", "value": "0.0315 ± 0.0241 % of dose"}, {"measurement": "GI 24 h", "setting": "[4]; 50 mg/kg", "value": "40.2 ± 11.6 % of dose"}, {"measurement": "Ae 0–24 h", "setting": "[4]; 100 mg/kg", "value": "0.0270 ± 0.0113 % of dose"}, {"measurement": "GI 24 h", "setting": "[4]; 100 mg/kg", "value": "41.2 ± 4.51 % of dose"}, {"measurement": "stability in various buffer solutions", "setting": "[5]", "value": "stable"}]}]}
